According to patent US6087376A (priority 1998, dated 2000):
Entries after “also recorded” stand apart in the source; their conditions may differ.

Experiments:
anxiolytic activity = conditions: in vivo; cited from earlier work
rat striatum = experiment: Striatal DA and DOPAC content after in vivo administration of lobeline
Description: Male Sprague-Dawley rats (200-250 g) were obtained from Harlan Laboratories (Indianapolis, Ind.) and were housed two per cage with free access to food and water in the Division of Lab Animal Resources at the College of Pharmacy at the University of Kentucky. Experimental protocols involving the animals were in strict accordance with the NIH Guide for the Care and Use of Laboratory Animals and were approved by the Institutional Animal Care and Use Committee at the University of Kentucky.
Rats were killed 24 hrs after the last injection and striata were obtained immediately for determination of endogenous DA and DOPAC content. […] Striata were obtained for endogenous DA and DOPAC content determination 21 days after osmotic minipump implantation. Lobeline dose was expressed in terms of mg of lobeline hemisulfate salt per kg body weight.
An aliquot (500 μL) of 0.1 M perchloric acid (pH 1.0) containing 0.14-0.29 μM 3,4-dihydroxybenzylamine hydrobromide (DHBA, internal standard) was added to 100 mg of striatum and the mixture was sonicated with an Ultrasonic Processor (40-Watt Model, Sonics & Materials, Danbury, Conn.). The homogenate was centrifuged at 30,000×g for 10 min at 4° C., and the supernatant was filtered (0.2 μm nylon membrane). An aliquot (50 μL) of the filtrate (1:1, 1:50, 1:100, 1:200 or 1:500 dilution with 0.1 M perchloric acid) was injected onto the high pressure liquid chromatograph with electrochemical detection (HPLC-EC) system. The HPLC-EC system consisted of syringe loading injector (Model 7725, Rheodyne L. P., Cotati, Calif.), Beckman Model 116 HPLC pump (Beckman, Fullerton, Calif.), ESA ODS ultrasphere C18 reverse-phase column ([…]×75 mm, 3 micron particle size, ESA, Bedford, Mass.), and an ESA 5100A coulometric electrochemical detector with a model 5011 detector cell (E1=+0.05 V, E2=+0.32 V). The eluent was 6% acetonitrile, 10 μM EDTA, 1.4 mM 1-octane-sulfonic acid and 76 mM sodium phosphate monobasic (pH 3.1). All separations were performed at room temperature at a flow rate of 1 ml/min. Complete separation of DA and DOPAC and reequilibration of the system required 9 min. The retention time of DA, DOPAC and DHBA standards was used to identify the relevant peak. Peak heights were used to calculate the detected amount of compound based on standard curves. The detection limit of DA and DOPAC was 0.2 and 0.05 pg/50 μL injected, respectively. Recovery of internal standard was routinely 75%.

[1] = tested on: rat striatal slices preloaded with [3H]DA; experiment: Mecamylamine antagonism of lobeline-evoked [3H]overflow from rat striatal slices; type: cell-based; parameters: lobeline-evoked total [3H]overflow: unit not given here
[2] = target: T1, plasma membrane DA transporter (rat striatal synaptosomes) (Rattus norvegicus, UniProt P23977); experiment: [3H]DA uptake assay, striatal synaptosomal preparation; type: biochemical; conditions: read-out: IC50, inhibition of [3H]DA uptake into synaptosomes
T1 construct: from tissue; host or cells: rat striatum, synaptosomes
Method: The homogenate was centrifuged at 2,000×g for 10 min at 4° C. […] The final protein concentration was 400 μg/mL. The assay was performed in duplicate in a total volume of 500 μL. […] The incubation continued for 10 min at 34° C. The reaction was terminated by the addition of 3 mL cold assay buffer (without 1 mM catechol). Samples were rapidly filtered through a Whatman GF/B filter using a Brandel cell harvester (model MP-43 RS, Biochemical Research and Development Laboratories, Inc., Gaithersburg, Md.) and the filter was subsequently washed 3 times with 4 mL of cold assay buffer containing 1 mM catechol. Filters were previously soaked for 2 hrs in the cold assay buffer containing 1 mM catechol. […] Filters were placed into scintillation vials, 10 mL of scintillation cocktail was added and radioactivity was determined by scintillation spectrometry.
Inhibition of synaptosomal and vesicular [^3 H]DA uptake were analyzed by repeated-measures, one-way ANOVA, and by an iterative nonlinear least-squares curve-fitting program (GraphPAD-PRIZM; GraphPAD, San Diego, Calif.) to obtain IC50 values. Dunnett's post hoc test was used to compare treatment means to a single control mean. Also, Duncan's New Multiple Range Test or Fisher's LSD post hoc analysis were used to compare pairs of treatment means. […]

[3] = tested on: locomotor activity in rats; conditions: rat, in vivo; cited from earlier work
[4] = tested on: conditioned place preference in rats; conditions: rat, in vivo; cited from earlier work
[5] = tested on: rat striatal synaptosomes; conditions: cited from earlier work
[6] = chronic, 30 mg/kg/day s.c. osmotic minipump, 21 days
[7] = intermittent, 3 mg/kg s.c. once daily for 10 days
[8] = intermittent, 10 mg/kg s.c. once daily for 10 days

T1 sequence (P23977 whole entry): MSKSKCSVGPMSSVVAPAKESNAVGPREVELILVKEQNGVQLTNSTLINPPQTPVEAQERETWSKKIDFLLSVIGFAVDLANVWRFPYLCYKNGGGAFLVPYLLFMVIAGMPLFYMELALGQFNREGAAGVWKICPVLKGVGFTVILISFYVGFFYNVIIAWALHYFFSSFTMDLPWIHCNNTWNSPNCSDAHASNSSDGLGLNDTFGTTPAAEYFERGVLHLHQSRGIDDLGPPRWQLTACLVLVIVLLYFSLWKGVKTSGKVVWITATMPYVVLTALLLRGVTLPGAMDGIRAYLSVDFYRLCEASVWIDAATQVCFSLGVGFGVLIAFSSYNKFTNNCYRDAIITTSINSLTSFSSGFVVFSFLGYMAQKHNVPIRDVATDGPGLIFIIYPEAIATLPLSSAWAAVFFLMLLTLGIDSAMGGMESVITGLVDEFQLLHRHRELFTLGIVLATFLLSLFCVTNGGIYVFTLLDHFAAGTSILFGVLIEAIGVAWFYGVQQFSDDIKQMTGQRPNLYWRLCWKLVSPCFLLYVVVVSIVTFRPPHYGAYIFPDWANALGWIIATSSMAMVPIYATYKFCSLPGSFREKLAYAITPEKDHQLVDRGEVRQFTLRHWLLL

CN1[C@@H](CC(=O)c2ccccc2)CCC[C@H]1C[C@H](O)c1ccccc1 [Lobeline, 2-[G-(β-hydroxyphenethyl)-1-methyl-2-piperidyl]-acetophenone]
anxiolytic activity (anxiolytic activity): anxiolytic activity | striatal DA content (rat striatum; acute, 1 mg/kg s.c., 1 hr): 756 ± 111 ng/mg protein | striatal DOPAC content (rat striatum; acute, 1 mg/kg s.c., 1 hr): 81 ± 12 ng/mg protein | striatal DA content (rat striatum; acute, 3 mg/kg s.c., 1 hr): 761 ± 103 ng/mg protein | striatal DOPAC content (rat striatum; acute, 3 mg/kg s.c., 1 hr): 89 ± 15 ng/mg protein | striatal DA content (rat striatum; acute, 10 mg/kg s.c., 1 hr): 841 ± 76 ng/mg protein | striatal DOPAC content (rat striatum; acute, 10 mg/kg s.c., 1 hr): 82 ± 8 ng/mg protein | striatal DA content (rat striatum; acute, 30 mg/kg s.c., 1 hr): 665 ± 126 ng/mg protein | striatal DOPAC content (rat striatum; acute, 30 mg/kg s.c., 1 hr): 72 ± 10 ng/mg protein | effect on striatal DA or DOPAC content in vivo (rat striatum; any dose or treatment regimen): did not significantly alter | striatal DA content (rat striatum; [6]): 856 ± 144 ng/mg protein | striatal DOPAC content (rat striatum; [6]): 62 ± 10 ng/mg protein | striatal DA content (rat striatum; [7]): 778 ± 27 ng/mg protein | striatal DOPAC content (rat striatum; [7]): 57 ± 12 ng/mg protein | striatal DA content (rat striatum; [8]): 800 ± 41 ng/mg protein | striatal DOPAC content (rat striatum; [8]): 57 ± 3 ng/mg protein | lobeline-evoked total [3H]overflow ([1]; lobeline 0.1 μM, mecamylamine 0 μM): 0.6 ± 0.4 | lobeline-evoked total [3H]overflow ([1]; lobeline 0.1 μM, mecamylamine 1 μM): 0.9 ± 0.5 | lobeline-evoked total [3H]overflow ([1]; lobeline 0.1 μM, mecamylamine 10 μM): 0.8 ± 0.3 | lobeline-evoked total [3H]overflow ([1]; lobeline 0.1 μM, mecamylamine 100 μM): 0.5 ± 0.4 | lobeline-evoked total [3H]overflow ([1]; lobeline 1 μM, mecamylamine 0 μM): 2.0 ± 0.6 | lobeline-evoked total [3H]overflow ([1]; lobeline 1 μM, mecamylamine 1 μM): 4.9 ± 1.8 | lobeline-evoked total [3H]overflow ([1]; lobeline 1 μM, mecamylamine 10 μM): 2.4 ± 0.5 | lobeline-evoked total [3H]overflow ([1]; lobeline 1 μM, mecamylamine 100 μM): 0.7 ± 0.1 | lobeline-evoked total [3H]overflow ([1]; lobeline 3 μM, mecamylamine 0 μM): 10.3 ± 0.8 | lobeline-evoked total [3H]overflow ([1]; lobeline 3 μM, mecamylamine 1 μM): 10.8 ± 1.4 | lobeline-evoked total [3H]overflow ([1]; lobeline 3 μM, mecamylamine 10 μM): 8.2 ± 1.5 | lobeline-evoked total [3H]overflow ([1]; lobeline 3 μM, mecamylamine 100 μM): 6.5 ± 0.9 | lobeline-evoked total [3H]overflow ([1]; lobeline 10 μM, mecamylamine 0 μM): 31.9 ± 2.2 | lobeline-evoked total [3H]overflow ([1]; lobeline 10 μM, mecamylamine 1 μM): 32.5 ± 1.0 | lobeline-evoked total [3H]overflow ([1]; lobeline 10 μM, mecamylamine 10 μM): 41.0 ± 6.2 | lobeline-evoked total [3H]overflow ([1]; lobeline 10 μM, mecamylamine 100 μM): 20.0 ± 2.0 | lobeline-evoked total [3H]overflow ([1]; lobeline 100 μM, mecamylamine 0 μM): 185.0 ± 12 | lobeline-evoked total [3H]overflow ([1]; lobeline 100 μM, mecamylamine 1 μM): 180.0 ± 47.6 | lobeline-evoked total [3H]overflow ([1]; lobeline 100 μM, mecamylamine 10 μM): 179.5 ± 12.2 | lobeline-evoked total [3H]overflow ([1]; lobeline 100 μM, mecamylamine 100 μM): 160.4 ± 30.2 | inhibition of lobeline-evoked [3H]overflow by mecamylamine ([1]; mecamylamine 1-100 μM, lobeline 0.1-100 μM): not inhibited by mecamylamine | IC50 [2]: 80 ± 12 µM | locomotor activity [3]: does not increase locomotor activity | conditioned place preference [4]: does not produce conditioned place preference; also recorded: does not increase locomotor activity (Stolerman et al., 1995) or produce conditioned place preference | DA release from superfused striatal synaptosomes [5]: increase DA release
